In US10670605B2, “Cysteine reactive probes and uses thereof” (The Scripps Research Institute, priority 2015, dated 2020):
One block for each compound: values may come before it.

Assays:
Assay in all cases: Competitive isoTOP-ABPP, cell lysates
Format in all cases: binding
ACAT1 C413 (P24752) = target: T1, ACAT1 C413 (P24752) (Homo sapiens, UniProt P24752); conditions: for isoTOP-ABPP reactivity profile ratio, P24752_C413 / isoTOP-ABPP reactivity ratio, P24752_C413: 500 μm
T1 sequence (P24752 34-427): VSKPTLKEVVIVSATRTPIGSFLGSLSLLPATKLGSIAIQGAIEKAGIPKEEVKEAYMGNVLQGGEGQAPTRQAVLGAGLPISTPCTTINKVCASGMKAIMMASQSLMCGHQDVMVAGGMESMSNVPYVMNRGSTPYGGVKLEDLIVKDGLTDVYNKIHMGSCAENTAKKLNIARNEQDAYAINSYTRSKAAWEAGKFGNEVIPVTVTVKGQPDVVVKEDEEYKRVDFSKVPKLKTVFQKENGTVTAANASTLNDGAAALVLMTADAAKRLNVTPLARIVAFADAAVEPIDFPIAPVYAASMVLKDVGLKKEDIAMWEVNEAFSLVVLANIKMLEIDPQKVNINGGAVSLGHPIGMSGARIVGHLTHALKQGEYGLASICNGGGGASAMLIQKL

ACAT1 C196 (P24752) = target: T2, ACAT1 C196 (P24752) (Homo sapiens, UniProt P24752); conditions: for isoTOP-ABPP reactivity profile ratio, P24752_C196 / isoTOP-ABPP reactivity ratio, P24752_C196: 500 μm
T2 sequence (P24752 34-427): T1 sequence (P24752 34-427)

ERCC3 C342 (P19447) = target: T3, ERCC3 C342 (P19447) (Homo sapiens, UniProt P19447)
T3 sequence (P19447 1-782): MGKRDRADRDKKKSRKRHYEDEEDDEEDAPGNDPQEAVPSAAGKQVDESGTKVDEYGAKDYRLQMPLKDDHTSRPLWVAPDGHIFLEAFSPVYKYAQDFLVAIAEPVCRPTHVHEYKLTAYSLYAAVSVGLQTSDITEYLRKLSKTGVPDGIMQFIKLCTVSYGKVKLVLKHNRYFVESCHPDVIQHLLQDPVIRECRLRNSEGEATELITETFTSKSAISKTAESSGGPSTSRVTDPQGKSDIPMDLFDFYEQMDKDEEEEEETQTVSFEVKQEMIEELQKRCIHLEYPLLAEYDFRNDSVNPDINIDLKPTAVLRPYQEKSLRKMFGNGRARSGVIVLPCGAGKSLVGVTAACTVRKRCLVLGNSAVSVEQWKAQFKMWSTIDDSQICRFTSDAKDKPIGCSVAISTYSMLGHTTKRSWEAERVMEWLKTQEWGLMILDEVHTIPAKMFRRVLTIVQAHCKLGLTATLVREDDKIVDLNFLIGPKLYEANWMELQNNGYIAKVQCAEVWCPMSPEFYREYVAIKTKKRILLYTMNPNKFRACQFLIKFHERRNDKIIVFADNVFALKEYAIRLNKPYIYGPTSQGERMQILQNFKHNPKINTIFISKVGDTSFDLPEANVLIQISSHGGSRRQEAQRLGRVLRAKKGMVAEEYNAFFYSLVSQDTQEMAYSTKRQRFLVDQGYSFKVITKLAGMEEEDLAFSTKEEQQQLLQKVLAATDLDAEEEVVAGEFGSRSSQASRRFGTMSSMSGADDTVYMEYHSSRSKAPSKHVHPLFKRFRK

isoTOP-ABPP ratio (reactivity profile), P24752_C413 (ACAT1 C413 (P24752); 500 μm in-vitro ramos): 1.4 | isoTOP-ABPP ratio (reactivity profile), P24752_C413 (ACAT1 C413 (P24752); 500 μm in-vitro ramos_231): 1.2 | isoTOP-ABPP ratio (reactivity profile), P24752_C196 (ACAT1 C196 (P24752); 500 μm in-vitro ramos): 1.1 | isoTOP-ABPP ratio (reactivity profile), P24752_C196 (ACAT1 C196 (P24752); 500 μm in-vitro ramos_231): 1.0
Compound: COc1ccccc1OCCNC(=O)CCl [compound 28]

isoTOP-ABPP reactivity profile ratio, P24752_C413 (ACAT1 C413 (P24752); in-vitro_ramos_231): 1.0 | isoTOP-ABPP reactivity profile ratio, P24752_C196 (ACAT1 C196 (P24752); in-vitro_ramos): 0.9 | isoTOP-ABPP reactivity profile ratio, P24752_C196 (ACAT1 C196 (P24752); in-vitro_ramos_231): 1.2
Compound: C=CC(=O)N1CCC(Cc2ccccc2)CC1 [compound 53]

Compound: O=C(CCl)N1CCC(C(O)(c2ccccc2)c2ccccc2)CC1 [compound 20]
isoTOP-ABPP ratio (reactivity profile), P24752_C413 (ACAT1 C413 (P24752); 500 μm in-vitro ramos): 14.0 | isoTOP-ABPP ratio (reactivity profile), P24752_C413 (ACAT1 C413 (P24752); 500 μm in-vitro ramos_231): 20.0 | isoTOP-ABPP ratio (reactivity profile), P24752_C196 (ACAT1 C196 (P24752); 500 μm in-vitro ramos): 2.9 | isoTOP-ABPP ratio (reactivity profile), P24752_C196 (ACAT1 C196 (P24752); 500 μm in-vitro ramos_231): 3.7 | isoTOP-ABPP ratio (reactivity profile), P19447_C342 (ERCC3 C342 (P19447); 500 μm in-vitro ramos_231): 2.6

isoTOP-ABPP ratio (reactivity profile), P24752_C413 (ACAT1 C413 (P24752); 500 μm in-vitro ramos): 1.2 | isoTOP-ABPP ratio (reactivity profile), P24752_C413 (ACAT1 C413 (P24752); 500 μm in-vitro ramos_231): 1.1 | isoTOP-ABPP ratio (reactivity profile), P24752_C196 (ACAT1 C196 (P24752); 500 μm in-vitro ramos): 1.8 | isoTOP-ABPP ratio (reactivity profile), P19447_C342 (ERCC3 C342 (P19447); 500 μm in-vitro ramos_231): 1.6
Compound: N#C/C(=C\c1cc(C(F)(F)F)cc(C(F)(F)F)c1)C(N)=O [compound 23]

isoTOP-ABPP reactivity profile ratio, P24752_C413 (ACAT1 C413 (P24752); in-vitro_ramos_231): 20.0 | isoTOP-ABPP reactivity profile ratio, P24752_C196 (ACAT1 C196 (P24752); in-vitro_ramos_231): 20.0
Compound: CC1CCc2ccccc2N1C(=O)CCl (stereo not shown) [compound 45]

isoTOP-ABPP reactivity profile ratio, P24752_C413 (ACAT1 C413 (P24752); in-vitro_ramos): 1.0 | isoTOP-ABPP reactivity profile ratio, P24752_C413 (ACAT1 C413 (P24752); in-vitro_ramos_231): 1.0 | isoTOP-ABPP reactivity profile ratio, P24752_C196 (ACAT1 C196 (P24752); in-vitro_ramos_231): 1.1 | isoTOP-ABPP reactivity profile ratio, P19447_C342 (ERCC3 C342 (P19447); 500 μm, in-vitro_ramos_231): 1.4
Compound: O=C(CCl)Nc1cccc2ncccc12 [compound 51]

isoTOP-ABPP reactivity ratio, P24752_C413 (ACAT1 C413 (P24752); in-vitro_ramos): 20.0 | isoTOP-ABPP reactivity ratio, P24752_C413 (ACAT1 C413 (P24752); in-vitro_ramos_231): 1.1 | isoTOP-ABPP reactivity ratio, P24752_C196 (ACAT1 C196 (P24752); in-vitro_ramos): 1.3 | isoTOP-ABPP reactivity ratio, P24752_C196 (ACAT1 C196 (P24752); in-vitro_ramos_231): 1.0 | isoTOP-ABPP reactivity ratio, P19447_C342 (ERCC3 C342 (P19447); 500 μm, in-vitro_ramos_231): 1.3
Compound: C=CC(=O)Nc1cc(F)c(N2CCN(C(=O)OC(C)(C)C)CC2)c(F)c1 [compound 38]

isoTOP-ABPP ratio P24752_C413 (ACAT1 C413 (P24752); 500 μM, invitro, 231): 1.2 | isoTOP-ABPP ratio (reactivity profile), P24752_C413 (ACAT1 C413 (P24752); 500 μm in-vitro ramos): 0.9 | isoTOP-ABPP ratio, P24752_C196 (ACAT1 C196 (P24752); 500 μM, invitro, 231): 0.9 | isoTOP-ABPP ratio (reactivity profile), P24752_C196 (ACAT1 C196 (P24752); 500 μm in-vitro ramos): 1.6
Compound: C=CC(=O)N(Cc1cccnc1)c1ccc(Oc2ccccc2)c(C(F)(F)F)c1 [compound 15]

isoTOP-ABPP reactivity profile ratio, P24752_C413 (ACAT1 C413 (P24752); in-vitro_ramos_231): 15.9 | isoTOP-ABPP reactivity profile ratio, P24752_C196 (ACAT1 C196 (P24752); in-vitro_ramos): 2.3 | isoTOP-ABPP reactivity profile ratio, P24752_C196 (ACAT1 C196 (P24752); in-vitro_ramos_231): 2.4
Compound: COc1cc(NC(=O)CCl)cc(OC)c1 [compound 43]

isoTOP-ABPP ratio (reactivity profile), P24752_C413 (ACAT1 C413 (P24752); 500 μm in-vitro ramos): 1.2 | isoTOP-ABPP ratio (reactivity profile), P24752_C196 (ACAT1 C196 (P24752); 500 μm in-vitro ramos): 1.1
Compound: CC(Br)C(=O)Nc1cc(C(F)(F)F)cc(C(F)(F)F)c1 (stereo not shown) [compound 24]

isoTOP-ABPP reactivity ratio, P24752_C413 (ACAT1 C413 (P24752); in-vitro_ramos): 1.0 | isoTOP-ABPP reactivity ratio, P24752_C413 (ACAT1 C413 (P24752); in-vitro_ramos_231): 1.6 | isoTOP-ABPP reactivity ratio, P24752_C196 (ACAT1 C196 (P24752); in-vitro_ramos): 0.9 | isoTOP-ABPP reactivity ratio, P24752_C196 (ACAT1 C196 (P24752); in-vitro_ramos_231): 1.2
Compound: C=CC(=O)N(Cc1cccnc1)c1cc(C(F)(F)F)cc(C(F)(F)F)c1 [compound 31]

isoTOP-ABPP ratio (reactivity profile), P24752_C413 (ACAT1 C413 (P24752); 500 μm in-vitro ramos_231): 1.0 | isoTOP-ABPP ratio (reactivity profile), P24752_C196 (ACAT1 C196 (P24752); 500 μm in-vitro ramos_231): 0.9 | isoTOP-ABPP ratio (reactivity profile), P19447_C342 (ERCC3 C342 (P19447); 500 μm in-vitro ramos_231): 0.9
Compound: CC(Cl)C(=O)Nc1cc(C(F)(F)F)cc(C(F)(F)F)c1 (stereo not shown) [compound 25]

isoTOP-ABPP reactivity profile ratio, P24752_C413 (ACAT1 C413 (P24752); in-vitro_ramos_231): 9.2 | isoTOP-ABPP reactivity profile ratio, P24752_C196 (ACAT1 C196 (P24752); in-vitro_ramos_231): 3.9
Compound: O=C(CCl)N1CCc2cc(Br)ccc21 [compound 50]

isoTOP-ABPP ratio (reactivity profile), P24752_C413 (ACAT1 C413 (P24752); 500 μm in-vitro ramos): 1.1 | isoTOP-ABPP reactivity ratio, P24752_C413 (ACAT1 C413 (P24752); in-vitro_ramos): 1.9 | isoTOP-ABPP ratio (reactivity profile), P24752_C196 (ACAT1 C196 (P24752); 500 μm in-vitro ramos): 0.8 | isoTOP-ABPP reactivity ratio, P24752_C196 (ACAT1 C196 (P24752); in-vitro_ramos): 1.1 | isoTOP-ABPP ratio (reactivity profile), P19447_C342 (ERCC3 C342 (P19447); 500 μm in-vitro ramos): 1.3
Compound: CCN(CC)c1ccc(S(N)(=O)=O)cc1NC(=O)CCl [compound 30]

isoTOP-ABPP reactivity ratio, P24752_C413 (ACAT1 C413 (P24752); in-vitro_ramos): 0.9 | isoTOP-ABPP reactivity ratio, P24752_C196 (ACAT1 C196 (P24752); in-vitro_ramos): 1.0
Compound: C=CC(=O)N1CCC(c2noc3ccc(F)cc23)CC1 [compound 37]

isoTOP-ABPP reactivity profile ratio, P24752_C413 (ACAT1 C413 (P24752); in-vitro_ramos_231): 0.8 | isoTOP-ABPP reactivity profile ratio, P24752_C196 (ACAT1 C196 (P24752); in-vitro_ramos_231): 0.8
Compound: O=C(CCl)NC1C(O)OC(CO)C(O)C1O (mixture of isomers) [compound 44]

isoTOP-ABPP ratio (reactivity profile), P24752_C413 (ACAT1 C413 (P24752); 500 μm in-vitro ramos): 0.9 | isoTOP-ABPP ratio (reactivity profile), P24752_C196 (ACAT1 C196 (P24752); 500 μm in-vitro ramos): 1.0
Compound: O=C(/C=C/c1ccccc1)Nc1cc(C(F)(F)F)cc(C(F)(F)F)c1 [compound 26]

isoTOP-ABPP reactivity ratio, P24752_C413 (ACAT1 C413 (P24752); in-vitro_ramos_231): 0.9 | isoTOP-ABPP reactivity ratio, P24752_C196 (ACAT1 C196 (P24752); in-vitro_ramos_231): 0.8
Compound: C=CC(=O)Nc1cc(C)c(Br)cc1C [compound 40]
